Biological target: SMYD2 (Homo sapiens (Human), UniProt Q9NRG4)
Assay: SMYD2 TR-FRET inhibition assay (p53 peptide + SAM, SAH detection)
Assay type: biochemical
Settings: SMYD2 enzyme, p53 peptide and SAM substrates, overnight at room temperature; Tb chelate mAb/OG-SAH probe detection; read-out: TRFRET IC50
Method: 5 microliters of a 2×SMYD2 enzyme solution (20 nM, […] in assay buffer) were added to each well. To the control wells was also added 5 microliters of assay buffer. […] The wells were incubated at room temperature for 30 minutes.
Into the wells of the counter screen plate was added 5 microliters 2×SAH (300 nM, S-adenosyl homocysteine (SAH)), except the control wells.
Into all wells was added 5 microliters of 2×SAM. The plates were covered and incubated overnight at room temperature. […] Analysis of the wells was by the Laser Lentha Low Volume Envision Protocol (emission wavelength of 520 nm; laser excitation wavelength of 337 nm).

Chain of SMYD2 (Q9NRG4 whole entry): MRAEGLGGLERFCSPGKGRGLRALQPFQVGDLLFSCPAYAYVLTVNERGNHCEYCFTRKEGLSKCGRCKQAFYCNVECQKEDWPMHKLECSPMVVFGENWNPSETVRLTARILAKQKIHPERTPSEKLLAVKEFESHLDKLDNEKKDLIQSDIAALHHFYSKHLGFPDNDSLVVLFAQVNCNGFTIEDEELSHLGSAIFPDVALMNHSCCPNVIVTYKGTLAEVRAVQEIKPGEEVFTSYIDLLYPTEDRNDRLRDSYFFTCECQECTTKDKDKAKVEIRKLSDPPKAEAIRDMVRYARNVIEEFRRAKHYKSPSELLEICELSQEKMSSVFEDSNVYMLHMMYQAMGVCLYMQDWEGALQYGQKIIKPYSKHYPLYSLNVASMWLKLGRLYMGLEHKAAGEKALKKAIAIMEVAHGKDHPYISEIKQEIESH

O=C1COc2c(cccc2C(O)CNCCN(C(=O)CCNCCc2ccc(Cl)c(Cl)c2)C2CCCCC2)N1 (racemic) [Example 1, N-cyclohexyl-3-((3,4-dichlorophenethyl)amino)-N-(2-((2-hydroxy-2-(3-oxo-3,4-dihydro-2H-benzo[b][1,4]oxazin-8-yl)ethyl)amino)ethyl)-propanamide]
IC50: 0.065 µM

O=C1COc2c(cccc2[C@H](O)CNCCN(C(=O)CCNCCc2ccc(Cl)c(Cl)c2)C2CCCCC2)N1 [Example 1a, (S)-N-cyclohexyl-3-((3,4-dichlorophenethyl)amino)-N-(2-((2-hydroxy-2-(3-oxo-3,4-dihydro-2H-benzo[b][1,4]oxazin-8-yl)ethyl)amino)-ethyl)-propanamide]
IC50: 0.023 µM

O=C1COc2c(cccc2[C@@H](O)CNCCN(C(=O)CCNCCc2ccc(Cl)c(Cl)c2)C2CCCCC2)N1 [Example 1b, (R)-N-cyclohexyl-3-((3,4-dichlorophenethyl)amino)-N-(2-((2-hydroxy-2-(3-oxo-3,4-dihydro-2H-benzo[b][1,4]oxazin-8-yl)ethyl)amino)-ethyl)-propanamide]
IC50: 0.138 µM

O=C1COc2c(CCNCCN(C(=O)CCNCc3ccc(Cl)c(Cl)c3)C3CCCCC3)ccc(O)c2N1 [Example 2]
IC50: 2.03 µM

O=C1COc2c(CCNCCN(C(=O)CCNCCc3ccccc3)C3CCCC3)ccc(O)c2N1 [Example 3, N-cyclopentyl-N-(2-((2-(5-hydroxy-3-oxo-3,4-dihydro-2H-benzo[b][1,4]oxazin-8-yl)ethyl)amino)ethyl)-3-(phenethylamino)-propanamide]
IC50: 3.74 µM

O=C1COc2c(CCNCCN(C(=O)CCNCCc3ccc(Cl)c(Cl)c3)C3CCCC3)ccc(O)c2N1 [Example 4, N-cyclopentyl-3-((3,4-dichlorophenethyl)amino)-N-(2-((2-(5-hydroxy-3-oxo-3,4-dihydro-2H-benzo[b][1,4]oxazin-8-yl)ethyl)amino)-ethyl)-propanamide]
IC50: 10 µM

O=C(CCNCCc1ccc(Cl)c(Cl)c1)N(CCNCCCN1CCCCC1)C1CCCCC1 [Example 5, N-cyclohexyl-3-((3,4-dichlorophenethyl)amino)-N-(2-((3-(piperidin-1-yl)propyl)amino)ethyl)propanamide]
IC50: 11.2 µM

O=C(CCNCCc1ccc(Cl)c(Cl)c1)N(CCNCCN1CCCC1)C1CCCCC1 [Example 6, N-cyclohexyl-3-((3,4-dichlorophenethyl)amino)-N-(2-((2-(pyrrolidin-1-yl)ethyl)amino)ethyl)propanamide]
IC50: 12.1 µM

CC(NCCc1ccc(Cl)c(Cl)c1)C(=O)N(CCNCc1ccc(C#N)cc1)C1CCCCC1 (stereo not drawn) [Example 7, N-(2-((4-cyanobenzyl)amino)ethyl)-N-cyclohexyl-((3,4-dichlorophenethyl)amino)propanamide]
IC50: 16 µM

CC1CNc2c(CC(C)(C)C)c(NCCN(C(=O)CCNCCc3ccc(Cl)c(Cl)c3)C3CCCCC3)nn2C1 (stereo not drawn) [Example 8, N-cyclohexyl-3-((3,4-dichlorophenethyl)amino)-N-(2-((6-methyl-3-neopentyl-4,5,6,7-tetrahydropyrazolo[1,5-a]pyrimidin-2-yl)-amino)ethyl)-propanamide]
IC50: 32.8 µM

O=C(CCNCCc1ccccc1)N(CCN1CC[C@H]1COc1cccnc1)C1CCCCC1 [Example 9, (S)-N-cyclohexyl-3-(phenethylamino)-N-(2-(2-((pyridin-3-yloxy)methyl)azetidin-1-yl)ethyl)propanamide]
IC50: > 50 µM

COCCC(=O)N(CCNCCc1ccc(O)c2c1OCC(=O)N2)C1CCCCC1 [Example 10, N-cyclohexyl-N-(2-((2-(5-hydroxy-3-oxo-3,4-dihydro-2H-benzo[b][1,4]oxazin-8-yl)ethyl)amino)ethyl)-3-methoxypropanamide]
IC50: > 50 µM

O=C1COc2c(CCNCCN(C(=O)CCNCCc3ccccc3)C3CCCCC3)ccc(O)c2N1 [Example 11, N-cyclohexyl-N-(2-((2-(5-hydroxy-3-oxo-3,4-dihydro-2H-benzo[b][1,4]oxazin-8-yl)ethyl)amino)ethyl)-3-(phenethylamino)-propanamide]
IC50: > 50 µM

O=C(CCNCCc1ccc(Cl)c(Cl)c1)N(CCN1CCN(c2cccc3c2CCN3)CC1)C1CCCCC1 [Example 12, N-cyclohexyl-3-((3,4-dichlorophenethyl)amino)-N-(2-(4-(indolin-4-yl)piperazin-1-yl)ethyl)propanamide]
IC50: 9.83 µM

O=C(CCNCCc1ccc(Cl)c(Cl)c1)N(CCNCCCN1CCCC1)C1CCCCC1 [Example 13, N-cyclohexyl-3-((3,4-dichlorophenethyl)amino)-N-(2-((3-(pyrrolidin-1-yl)propyl)amino)ethyl)propanamide]
IC50: 7.42 µM

O=C1COc2c(CCNCCN(C(=O)CCNCCc3ccccc3)C3CCC3)ccc(O)c2N1 [Example 14, N-cyclobutyl-N-(2-((2-(5-hydroxy-3-oxo-3,4-dihydro-2H-benzo[b][1,4]oxazin-8-yl)ethyl)amino)ethyl)-3-(phenethylamino)-propanamide]
IC50: > 50 µM

O=C1COc2c(CCNCCN(C(=O)CCNCCc3ccc(Cl)c(Cl)c3)C3CCC3)ccc(O)c2N1 [Example 15, N-cyclobutyl-3-((3,4-dichlorophenethyl)amino)-N-(2-((2-(5-hydroxy-3-oxo-3,4-dihydro-2H-benzo[b][1,4]oxazin-8-yl)ethyl)amino)-ethyl)-propanamide]
IC50: 3.79 µM

Cc1cn2ccccc2c1CCNCCN(C(=O)CCNCCc1cccc(Cl)c1Cl)C1CCCCC1 [Example 16, N-cyclohexyl-3-((2,3-dichlorophenethyl)amino)-N-(2-((2-(2-methylindolizin-1-yl)ethyl)amino)ethyl)propanamide]
IC50: 3.44 µM
